Laboratory results taken from the NIST ThermoML archive (doi:10.1016/j.jct.2007.07.005).
± gives the expanded uncertainty stated by the source.

Assay: xn = mol fraction of the nth substance listed
Conditions: Fluid (supercritical or subcritical phases), vibrating tube

SMILES: CCCCCO [pentan-1-ol] + O=C=O
- mass density (342.76 K, 3011 kPa, x2 = 0): 778.59 ± 0.43 kg/m3
- mass density (342.76 K, 4012 kPa, x2 = 0): 779.47 ± 0.43 kg/m3
- mass density (342.76 K, 5011 kPa, x2 = 0): 780.34 ± 0.44 kg/m3
- mass density (342.76 K, 6011 kPa, x2 = 0): 781.22 ± 0.44 kg/m3
- mass density (342.76 K, 7003 kPa, x2 = 0): 782.03 ± 0.44 kg/m3
- mass density (342.76 K, 8015 kPa, x2 = 0): 782.91 ± 0.44 kg/m3
- mass density (342.76 K, 9000 kPa, x2 = 0): 783.73 ± 0.44 kg/m3
- mass density (342.76 K, 10019 kPa, x2 = 0): 784.58 ± 0.44 kg/m3
- mass density (342.76 K, 11020 kPa, x2 = 0): 785.4 ± 0.44 kg/m3
- mass density (342.76 K, 12002 kPa, x2 = 0): 786.2 ± 0.44 kg/m3
- mass density (342.76 K, 13016 kPa, x2 = 0): 787.02 ± 0.44 kg/m3
- mass density (342.76 K, 14024 kPa, x2 = 0): 787.81 ± 0.44 kg/m3
- mass density (342.76 K, 15002 kPa, x2 = 0): 788.59 ± 0.44 kg/m3
- mass density (342.76 K, 16007 kPa, x2 = 0): 789.36 ± 0.44 kg/m3
- mass density (342.76 K, 17037 kPa, x2 = 0): 790.15 ± 0.44 kg/m3
- mass density (342.76 K, 17988 kPa, x2 = 0): 790.87 ± 0.45 kg/m3
- mass density (342.76 K, 19037 kPa, x2 = 0): 791.66 ± 0.45 kg/m3
- mass density (342.76 K, 20003 kPa, x2 = 0): 792.38 ± 0.45 kg/m3
- mass density (342.76 K, 21015 kPa, x2 = 0): 793.14 ± 0.45 kg/m3
- mass density (342.76 K, 22019 kPa, x2 = 0): 793.88 ± 0.45 kg/m3
- mass density (342.76 K, 23039 kPa, x2 = 0): 794.62 ± 0.45 kg/m3
- mass density (342.76 K, 24027 kPa, x2 = 0): 795.36 ± 0.45 kg/m3
- mass density (342.76 K, 25028 kPa, x2 = 0): 796.1 ± 0.45 kg/m3
- mass density (342.84 K, 15024 kPa, x2 = 0.9757): 576.16 ± 0.95 kg/m3
- mass density (342.84 K, 16006 kPa, x2 = 0.9757): 609.2 ± 0.88 kg/m3
- mass density (342.84 K, 17033 kPa, x2 = 0.9757): 637.26 ± 0.78 kg/m3
- mass density (342.84 K, 18023 kPa, x2 = 0.9757): 659.89 ± 0.73 kg/m3
- mass density (342.84 K, 19028 kPa, x2 = 0.9757): 679.62 ± 0.68 kg/m3
- mass density (342.84 K, 20027 kPa, x2 = 0.9757): 696.58 ± 0.64 kg/m3
- mass density (342.84 K, 21039 kPa, x2 = 0.9757): 711.98 ± 0.62 kg/m3
- mass density (342.84 K, 22011 kPa, x2 = 0.9757): 725.1 ± 0.6 kg/m3
- mass density (342.84 K, 23016 kPa, x2 = 0.9757): 737.54 ± 0.57 kg/m3
- mass density (342.87 K, 8048 kPa, x2 = 0.3624): 796.26 ± 0.44 kg/m3
- mass density (342.87 K, 9023 kPa, x2 = 0.3624): 797.49 ± 0.44 kg/m3
- mass density (342.87 K, 10006 kPa, x2 = 0.4651): 797.4 ± 0.44 kg/m3
- mass density (342.87 K, 10022 kPa, x2 = 0.3624): 798.77 ± 0.44 kg/m3
- mass density (342.87 K, 11004 kPa, x2 = 0.3624): 799.97 ± 0.44 kg/m3
- mass density (342.87 K, 11022 kPa, x2 = 0.4651): 799.24 ± 0.44 kg/m3
- mass density (342.87 K, 11991 kPa, x2 = 0.4651): 801.02 ± 0.44 kg/m3
- mass density (342.87 K, 12013 kPa, x2 = 0.3624): 801.19 ± 0.44 kg/m3
- mass density (342.87 K, 13001 kPa, x2 = 0.4651): 802.82 ± 0.44 kg/m3
- mass density (342.87 K, 13035 kPa, x2 = 0.3624): 802.37 ± 0.44 kg/m3
- mass density (342.87 K, 13990 kPa, x2 = 0.3624): 803.48 ± 0.44 kg/m3
- mass density (342.87 K, 13990 kPa, x2 = 0.4651): 804.53 ± 0.44 kg/m3
- mass density (342.87 K, 14011 kPa, x2 = 0.7274): 784.26 ± 0.57 kg/m3
- mass density (342.87 K, 14992 kPa, x2 = 0.7274): 789 ± 0.47 kg/m3
- mass density (342.87 K, 15018 kPa, x2 = 0.3624): 804.64 ± 0.44 kg/m3
- mass density (342.87 K, 15036 kPa, x2 = 0.4651): 806.31 ± 0.45 kg/m3
- mass density (342.87 K, 16009 kPa, x2 = 0.3624): 805.73 ± 0.44 kg/m3
- mass density (342.87 K, 16014 kPa, x2 = 0.4651): 807.95 ± 0.45 kg/m3
- mass density (342.87 K, 16025 kPa, x2 = 0.7274): 793.59 ± 0.47 kg/m3
- mass density (342.87 K, 17000 kPa, x2 = 0.3624): 806.82 ± 0.45 kg/m3
- mass density (342.87 K, 17004 kPa, x2 = 0.4651): 809.55 ± 0.45 kg/m3
- mass density (342.87 K, 17006 kPa, x2 = 0.7274): 797.68 ± 0.46 kg/m3
- mass density (342.87 K, 18005 kPa, x2 = 0.7274): 801.59 ± 0.46 kg/m3
- mass density (342.87 K, 18017 kPa, x2 = 0.4651): 811.18 ± 0.45 kg/m3
- mass density (342.87 K, 18021 kPa, x2 = 0.3624): 807.94 ± 0.45 kg/m3
- mass density (342.87 K, 19019 kPa, x2 = 0.4651): 812.75 ± 0.45 kg/m3
- mass density (342.87 K, 19032 kPa, x2 = 0.7274): 805.44 ± 0.46 kg/m3
- mass density (342.87 K, 19036 kPa, x2 = 0.3624): 809.03 ± 0.45 kg/m3
- mass density (342.87 K, 19983 kPa, x2 = 0.7274): 808.81 ± 0.46 kg/m3
- mass density (342.87 K, 20012 kPa, x2 = 0.3624): 810.06 ± 0.45 kg/m3
